Measured values: patent US6987093B2 (priority 2001, dated 2006)
In brackets after ≈: the same amount, converted by molar mass. Where two headings read alike, the source gives them in different places.

Tests used:
H. influenzae [1] = conditions: cited from earlier work
H. influenzae [2] = test: Study 95-001 otitis media caused by H. influenzae; assay type: in vivo, human; conditions: single intramuscular dose 50 mg/kg; 9 patients; follow-up
Description: Specimens for culture and susceptibility testing were obtained from the infected ear by tympanocentesis within 24 h of start of therapy. […] However, the study was evaluated using the breakpoints in the most recent set of guidelines.
To be a bacteriological cure, the MITT subject had to have a positive culture from the middle ear for S. pneumoniae, H influenzae, or M. catarrhalis. Eradication was defined as presumed eradication of pretreatment pathogen(s) based on signs/symptoms or unavailability of culturable material. All evaluable patients had only one of the bacterial species present at baseline. There was no bacteriological response data collected for 95–001. However, the clinical outcome by bacterial pathogen at follow-up (approximately 28 days after first visit) was collected. For patients with S. pneumoniae as the baseline pathogen, all treatment arms yielded 100% clinical cure when the investigators' evaluations that were missing are not included in the analysis. […] The comparator drug, ceftriaxone, had no failures out of 9 patients.

H. influenzae 54A1100 = test: MIC determination, H. influenzae 54A1100; assay type: cell-based, Haemophilus influenzae; conditions: H. influenzae 54A1100
Description: (§1) MIC Determinations. Streptococcus pneumoniae, S. pyogenes, E. faecalis, and H. influenzae MICs were determined using the broth microdilution procedure recommended by the NCCLS. Test trays were incubated at 35C without carbon dioxide. For testing of streptococci, the cation-adjusted Mueller-Hinton broth was supplemented with 2–3% lysed horse blood. For testing H. influenzae, freshly prepared Haemophilus Test Medium broth was used.
(§2) Bacterial Strains. • S. pneumoniae 02J1016, serotype 3, originally isolated from blood culture (strain P 4241) (MLS- and penicillin-susceptible). • S. pyogenes 02C0203, ATCC 12384, group A, type 3 (MLS-susceptible). • E. faecalis 03A1085, vancomycin susceptible clinically derived strain. • H. influenzae 54A1100, (43095 ATCC Fulghum strain) non-serotype B strain originally isolated from otitis media (macrolide and penicillin susceptible). • H. influenzae 54A1218, clinically derived non-serotype B strain (macrolide-susceptible, penicillin-resistant, TEM-1 beta-lactamase).

[3] = test system: Streptococcus pneumoniae 02J1016; test: Murine peritonitis model, Streptococcus pneumoniae; assay type: in vivo, mouse; conditions: oral QD
[4] = test system: Haemophilus influenzae 54A1100; test: Gerbil middle ear (otitis media) infection model, ED50, H. influenzae 54A1100; assay type: in vivo; conditions: oral QD; gerbil otitis media model
S. pyogenes 02C0203 = test: MIC determination, S. pyogenes; assay type: cell-based, Streptococcus pyogenes; conditions: listed as Clanthromycin
Description: as §1, §2

[5] = test system: Haemophilus influenzae 54A1100; test: Murine acute infection (peritonitis) model challenged with Haemophilus influenzae; assay type: in vivo, mouse; conditions: for Mice Surviving/Total: Q.D. [1 day]
[6] = test system: Streptococcus pyogenes 02C0203; test: Murine acute infection (peritonitis) model challenged with Streptococcus pyogenes; assay type: in vivo, mouse
[7] = test system: Streptococcus pneumoniae 02J1016; test: Murine lung (pulmonary/pneumonia) infection model challenged with Streptococcus pneumoniae; assay type: in vivo, mouse
S. pneumoniae isolates = test: Susceptibility (MIC) testing of trial S. pneumoniae isolates with PCR of resistance mechanism; assay type: cell-based, Streptococcus pneumoniae; conditions: for MIC: Streptococcus pneumoniae
Description: Samples of middle ear fluid were split for storage at a central laboratory and cultured locally. All pathogens isolated locally were subcultured and sent to a central laboratory for confirmation and susceptibility testing, performed by Kirby-Bauer disk-diffusion or MIC testing according to NCCLS standards.
Polymerase chain reaction (PCR) determination of resistance mechanisms in all the azithromycin-resistant pneumococci was done.
Cultures were taken for antimicrobial susceptibility testing and bacterial species were identified. Current NCCLS approved breakpoints for MICs and zone sizes were applied to all data irrespective of the breakpoint in use at the time of the study. The isolates from the clinical studies were sent to central laboratories for identification and susceptibility determination. The methods for agar diffusion disk tests are those recommended by NCCLS.
The susceptibility breakpoints for azithromycin were defined as follows: […]

[8] = oral QD, murine peritonitis model
[9] = 1.56 mg/kg/day P.O., 2 day regimen
[10] = 3.12 mg/kg/day P.O., 1 day regimen
[11] = 6.25 mg/kg/day P.O., 2 day regimen
[12] = 25.0 mg/kg/day P.O., 2 day regimen
[13] = 50.0 mg/kg/day P.O., 1 day regimen
[14] = oral QD, murine pneumonia model

For `CC=CC1=C(C(=O)O)N2C(=O)[C@@H](NC(=O)[C@H](N)c3ccc(O)cc3)[C@H]2SC1` [Cefprozil], the “success rate less than control (amoxicillin/clavulanic acid); presumptive bacterial/clinical cure outcomes (i.e., clinical success) at 10–16 days post-therapy” value (H. influenzae [1]) is listed as 17% less than control (amoxicillin/clavulanic.
With `CO/N=C(\C(=O)N[C@@H]1C(=O)N2C(C(=O)O)=C(CSc3nc(=O)c(=O)[nH]n3C)CS[C@H]12)c1csc(N)n1` [Ceftriaxone] the failures (H. influenzae [2]) was “no failures”.
For `CC[C@H]1OC(=O)[C@H](C)[C@@H](O[C@H]2C[C@@](C)(OC)[C@@H](O)[C@H](C)O2)[C@H](C)[C@@H](O[C@@H]2O[C@H](C)C[C@H](N(C)C)[C@H]2O)[C@](C)(OC)C[C@@H](C)C(=O)[C@H](C)[C@@H](O)[C@]1(C)O` [Clarithromycin], the MIC (H. influenzae 54A1100; listed as Clanthromycin) was 8 µg/mL (≈ 10.7 µM), the MIC (H. influenzae 54A1100; Haemophilus influenzae, read-out: MIC) was 8 µg/mL (≈ 10.7 µM) and the “ED50 One-Day Therapy” value [3] was 99.8 mg/kg/therapy. The “ED50 Three-Day Therapy” value [3] was 87.5 mg/kg/therapy, the “ED50 Two-Day Therapy” value [3] was 103.0 mg/kg/therapy and the “ED50 One-Day Therapy” value [4] was over 200 mg/kg/therapy. For the same compound, the “ED50 Three-Day Therapy” value [4] was over 200 mg/kg/therapy, the “ED50 Two-Day Therapy” value [4] was over 200 mg/kg/therapy and the MIC (S. pyogenes 02C0203) was “MIC 0.01-0.03 μg/ml”. The “Mice Surviving/Total” value ([5]; 3.12 mg/kg/day) was 0/10, the “Mice Surviving/Total” value ([5]; 50 mg/kg/day) was 2/10 and the “Mice Surviving/Total” value ([5]; 200 mg/kg/day) was 0/10. For the same compound, the “Oral PD50” value ([5]; Dosing Regimen 1 day) was over 200 mg/kg/day, the “Mice Surviving/Total” value ([5]; […]) was 0/10 and the PD50 ([5]; one therapeutic dose (one day regimen), s.c.) was over 200 mg/kg. For the same compound, the “ED50 One-Day Therapy” value [5, 8] was over 200 mg/kg/therapy, the “ED50 Three-Day Therapy” value [5, 8] was over 200 mg/kg/therapy and the “ED50 Two-Day Therapy” value [5, 8] was over 200 mg/kg/therapy. The “Mice Surviving/Total” value ([6]; 0.20 mg/kg/day P.O., 3 day regimen) was 0/10, the “Mice Surviving/Total” value ([6]; 0.39 mg/kg/day P.O., 2 day regimen) was 0/10 and the “Mice Surviving/Total” value ([6]; 0.78 mg/kg/day P.O., 1 day regimen) was 0/10. The “Mice Surviving/Total” value ([6]; 0.78 mg/kg/day P.O., 3 day regimen) was 5/10, the “Mice Surviving/Total” value [6, 9] was 8/10 and the “Mice Surviving/Total” value [6, 10] was 4/10. For the same compound, the “Mice Surviving/Total” value ([6]; 3.12 mg/kg/day P.O., 3 day regimen) was 9/10, the “Mice Surviving/Total” value [6, 11] was 9/10 and the “Mice Surviving/Total” value [6, 12] was 8/10. For the same compound, the “Mice Surviving/Total” value [6, 13] was 10/10, the “Oral PD50” value ([6]; Dosing Regimen 1 day) was 11.3 (3.1–19.4) mg/kg/day and the “Oral PD50” value ([6]; Dosing Regimen 2 days) was 2.2 (0.9–3.6) mg/kg/day. For the same compound, the “Oral PD50” value ([6]; Dosing Regimen 3 days) was 3.1 (2.6–3.7) mg/kg/day, the “Mice Surviving/Total” value ([6]; […] P.O., 1 day regimen) was 6/10 and the “Mice Surviving/Total” value ([6]; […] P.O., 3 day regimen) was 10/10. The “ED50 One-Day Therapy” value [6, 8] was 11.7^1 mg/kg/therapy, the “ED50 Three-Day Therapy” value [6, 8] was 3.8 mg/kg/therapy and the “ED50 Two-Day Therapy” value [6, 8] was 2.5 mg/kg/therapy. The “Mice Surviving/Total” value ([7]; 1.04 mg/kg/day P.O., 3 day regimen) was 0/10, the “Mice Surviving/Total” value [7, 9] was 0/10 and the “Mice Surviving/Total” value [7, 10] was 0/10. For the same compound, the “Mice Surviving/Total” value ([7]; 4.2 mg/kg/day P.O., 3 day regimen) was 0/10, the “Mice Surviving/Total” value [7, 11] was 0/10 and the “Mice Surviving/Total” value ([7]; 16.7 mg/kg/day P.O., 3 day regimen) was 0/10. For the same compound, the “Mice Surviving/Total” value [7, 12] was 0/10, the “Mice Surviving/Total” value [7, 13] was 1/10 and the “Mice Surviving/Total” value ([7]; 66.7 mg/kg/day P.O., 3 day regimen) was 2/10. The “Mice Surviving/Total” value ([7]; 100.0 mg/kg/day P.O., 2 day regimen) was 1/10, the “Mice Surviving/Total” value ([7]; 200.0 mg/kg/day P.O., 1 day regimen) was 4/10 and the “Oral PD50” value ([7]; Dosing Regimen 1 day) was over 200 mg/kg/day. The “Oral PD50” value ([7]; Dosing Regimen 2 days) was over 200 mg/kg/day, the “Oral PD50” value ([7]; Dosing Regimen 3 days) was over 200 mg/kg/day and the “Mice Surviving/Total” value ([7]; […] P.O., 1 day regimen) was 1/10. For the same compound, the PD50s ([7]; all three q.d. regimens (1, 2, 3 days)) was over 200 mg/kg, the “ED50 One-Day Therapy” value [7, 14] was 270 mg/kg/therapy and the “ED50 Three-Day Therapy” value [7, 14] was 338 mg/kg/therapy. The “ED50 Two-Day Therapy” value [7, 14] was 327 mg/kg/therapy and the PD50s ([7]; previous data, BID administration over two days of therapy) was 5 to 25 mg/kg.
In the case of `CCC[C@@H]1C[C@@H](C(=O)N[C@@H]([C@H]2O[C@H](SC)[C@H](O)[C@@H](O)[C@H]2O)[C@H](C)Cl)N(C)C1` [clindamycin], the “clindamycin MIC” value (S. pneumoniae isolates; S. pneumoniae strains with erm(B)) is reported as 128 µg/mL, the MIC (S. pneumoniae isolates; read-out: clindamycin MIC, S. pneumoniae strains confirmed as mef(A)) is reported as under 0.06 µg/mL and the MIC (S. pneumoniae isolates; read-out: clindamycin MIC, S. pneumoniae strains with erm(B)) is reported as over 128 µg/mL.
